Our source for the TGI and GI50 values is PubChem BioAssay (NCI).

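All cell lines were grown in 96-well plates and treated with compound for 48 hours. Here, GI50 denotes the concentration required for 50% inhibition of growth. The concentration for full growth arrest is given as TGI.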 Where only a bound is given, the exact number is not on record here.

Assay in all cases: DTP human tumour cell line panel, 48 h
In assay [1] the test system is RXF 393 renal.
Assay [2] relates to SR leukemia.
For assay [3], the system named is 786-0 renal.
Assay [4] concerns UACC-257 melanoma.
Assay [5] has as its system RPMI-8226 leukemia.
The test system of assay [6] is HT29 colon.
Assay [7] deals with KM12 colon.
The test system of assay [8] is SF-295 CNS.
For assay [9], the system named is DU-145 prostate.

In the case of `O=C(O)CCSC(=O)Nc1ccc([N+](=O)[O-])cc1`, the TGI in [1], in [2], in assay [3], in assay [4], in [5] and in assay [6] was above 100 µM throughout. In addition, the total growth inhibition concentration (TGI) in assay [7] and in assay [8] was above 100 µM each time.

Take `COCCCNC(=O)C1C(=O)C(=O)N(CCCOC)C1=O` (stereo unspecified): the TGI in assay [2], in assay [3], in assay [4], in [5], in [6] and in assay [8] was above 100 µM in each case.

With `O=C(CCN(C(=O)O)S(=O)(=O)c1ccc(NC(=O)c2ccccc2)cc1)NC1CCCCC1`, the TGI in assay [2] is above 100 µM; in assay [3] it was 31.7 µM; in assay [4], above 100 µM; in assay [5], 41.8 µM; in assay [6], 56.8 µM; in [7], above 100 µM. In assay [8], the TGI is above 100 µM.

On to `COC1(OC)CC2OC1C1N=NN(C(=O)OC(C)(C)C)C21` (stereo unspecified), for which the total growth inhibition concentration (TGI) in [1], in assay [3], in assay [4], in assay [5], in assay [6] and in assay [7] was above 100 µM throughout. Moreover, in assay [8], the TGI is above 100 µM.

`CCOC(=O)/C(=C\c1ccccc1)C(=O)O`: the TGI in assay [2], in assay [3], in assay [4], in assay [5], in [6] and in [7] was above 100 µM throughout. In [8], this compound yielded a TGI above 100 µM.

Turning to `O=C(CC1(O)C(=O)Nc2ccccc21)c1ccncc1` (stereo unspecified), the TGI in [1], in assay [2], in assay [3], in assay [5], in assay [6] and in assay [8] was above 100 µM throughout.

In the case of `Nc1cccc(S(=O)(=O)NCC(=O)O)c1`, the total growth inhibition concentration (TGI) in assay [1], in assay [3], in [4], in [5], in assay [6] and in assay [7] was above 100 µM throughout. Besides, the TGI in [8] is above 100 µM.

With `O=C1CCC(N2C(=O)c3ccccc3C2=O)C(=O)N1CO` (stereo unspecified), the GI50 is 43 µM in [1]; above 100 µM in [3]; 78.6 µM in assay [4]; 25.1 µM in assay [5]; 42.1 µM in assay [6]; above 100 µM in assay [7]. Besides, the GI50 in assay [8] is above 100 µM; in [9] it was 25 µM. In addition, the TGI is above 100 µM in assay [1]; above 100 µM in assay [3]; above 100 µM in assay [4]; 78.7 µM in [5]; above 100 µM in [6]; above 100 µM in [7]. Besides, the results for the concentration for total growth inhibition (TGI) in [8] and in assay [9] were above 100 µM and 79.6 µM, respectively.

For the compound `C[C@@H]1OC(=O)N2CCCC(=C3SCCCS3)C12` (stereo partly specified), the TGI in [1], in assay [3], in assay [4], in assay [5], in assay [6] and in [7] was above 100 µM in each case. This compound registered a concentration for total growth inhibition (TGI) in [8] above 100 µM.

As for `CCN(CC)C(c1ccc(N(C)C)cc1)C(c1ccc(N(C)C)cc1)N(CC)CC` (stereo unspecified), the TGI in [1], in assay [3], in assay [4], in assay [5], in [6] and in [7] was above 73 µM each time. For the same compound, in [8], the TGI is above 73 µM.

As to `O=[N+]([O-])c1ccc(C=NC2CCCCC2)cc1`, the TGI in [1], in assay [2], in assay [3], in assay [4], in assay [6] and in [7] was above 100 µM each time. The compound further showed a TGI in assay [8] above 100 µM.

With `O=C(CC1(O)C(=O)Nc2c(Cl)ccc(Cl)c21)c1ccc(F)cc1` (stereo unspecified), the TGI in assay [1] was 92.2 µM; in assay [3], above 100 µM; in assay [4], above 100 µM; in assay [5], 47.9 µM; in [6], above 100 µM; in assay [7], above 100 µM. This compound also showed a TGI in [8] above 100 µM.

For the compound `O=C(CCc1cc(-c2ccccc2)nc(=S)[nH]1)N(Cc1ccccc1)Cc1ccccc1`, the TGI in assay [3], in [4], in [5], in assay [6], in assay [7] and in [8] was above 100 µM each time.

In the case of `COc1ccc2c(c1)[n+](=O)c(C(=O)C/C(=N/OCCCc1ccccc1)C(=O)NC13CC4CC(CC(C4)C1)C3)c(C)n2[O-]`, the TGI in assay [2], in [3], in assay [4], in [5], in assay [6] and in assay [7] was above 100 µM in each case. For the same compound, the total growth inhibition concentration (TGI) in assay [8] was above 100 µM.

Turning to `N#C/C(=C\c1ccc2ccccc2c1)c1ccccc1`, the TGI in assay [1] was 65 µM; in assay [2], above 100 µM; in assay [3] it was 41.3 µM; in [4], above 100 µM; in assay [5], above 100 µM; in [6], 74.6 µM. Moreover, the total growth inhibition concentration (TGI) was above 100 µM in assay [7] and 50.4 µM in [8].

On to `Cc1cc(N(CCC#N)CCC#N)ccc1/C=C1\N=C(c2cc([N+](=O)[O-])ccc2Cl)N(c2cccc(Cl)c2)C1=O`, for which the TGI in assay [2], in assay [3], in assay [4], in assay [5], in assay [6] and in [7] was above 100 µM throughout. The same compound yielded a total growth inhibition concentration (TGI) in assay [8] above 100 µM.

As for `O=C(O)C(CS)Nc1c2ccccc2nc2ccccc12` (stereo unspecified), the TGI in assay [1], in assay [2], in [3], in assay [4], in [5] and in assay [6] was above 100 µM each time. Also, the concentration for total growth inhibition (TGI) in assay [7] and in assay [8] was above 100 µM in each case.

For `Nc1c(-c2ccc(Cl)cc2)[n+]([O-])c2ccccc2[n+]1[O-]`, the total growth inhibition concentration (TGI) in assay [3], in [4], in assay [5], in [6], in assay [7] and in assay [8] was above 100 µM throughout.

Turning to `COc1ccc2nc3c(C(=O)NCCN(C)C)cccc3nc2c1`, the TGI is above 1 µM in assay [1]; above 100 µM in assay [3]; 19.9 µM in assay [4]; 28.8 µM in assay [6]; above 100 µM in [7]; 39.1 µM in assay [8].

In the case of `CNC(=O)C1CCc2nnc(-c3ccccc3)n21` (stereo unspecified), the total growth inhibition concentration (TGI) in assay [1], in assay [2], in assay [3], in assay [4], in assay [5] and in [7] was above 100 µM each time.

As for `O=C(N/C(=C\c1cccc([N+](=O)[O-])c1)c1nc2ccc([N+](=O)[O-])cc2[nH]1)c1ccccc1`, the total growth inhibition concentration (TGI) in assay [1] was above 100 µM; in assay [2], 65.6 µM; in [3], above 100 µM; in assay [6], above 100 µM; in assay [7], above 100 µM; in assay [8], above 100 µM.

`CC(C)(CO)N1CCN(C(=S)Nc2ccccc2)CC1`: the TGI in [1], in assay [3], in assay [4], in assay [5], in [6] and in assay [7] was above 100 µM in each case. This compound gave a TGI in assay [8] above 100 µM.

For the compound `CC(C)(C)c1cc(CCC(=O)Nc2ccc(Cl)cc2)nc(NC#N)n1`, the TGI in assay [3], in assay [4], in assay [6], in assay [7] and in assay [8] was above 100 µM throughout.

Take `CCOC(=O)/C(C#N)=C/c1[nH]c(C(=O)OCc2ccccc2)c(C)c1C`: the TGI in [1], in assay [3], in assay [4], in assay [5], in [6] and in assay [7] was above 100 µM each time. The compound also had a TGI in assay [8] above 100 µM.

With `CN(C)CCNC(=O)c1cccc2ccc(-c3ccncc3)nc12`, the total growth inhibition concentration (TGI) in assay [1] was found to be 7.85 µM; in assay [3], 34.2 µM; in [4], 6.66 µM; in assay [6] it was 13.8 µM; in assay [7], 54.3 µM; in assay [8] it was 14.8 µM.

For `Cc1ccc(NC(=O)CC(=O)n2nc(C)c(N=Nc3ccccc3C(=O)O)c2C)cc1`, the TGI in assay [3], in assay [4], in assay [5], in assay [6], in assay [7] and in assay [8] was above 100 µM each time.

As to `NC12CC3CC(C1)CC(C(=O)O)(C3)C2`, the total growth inhibition concentration (TGI) in [2], in [3], in assay [4], in assay [5], in [6] and in assay [7] was above 100 µM throughout. This compound returned a TGI in assay [8] above 100 µM.

`CC(SC(=S)N1CCOCC1)c1cc2oc(=O)n(C)c2cc1Cl` (stereo unspecified): the TGI in assay [1], in assay [2], in assay [3], in [4], in assay [5] and in assay [6] was above 100 µM throughout. For the same compound, the TGI in assay [7] and in [8] was above 100 µM in each case.

Regarding `CCC[CH2][Sn]1([CH2]CCC)[O]C(=O)CN=Cc2c(ccc3ccccc23)[O]1`, the GI50 in assay [1] is 0.136 µM; in assay [3], 0.487 µM; in [4], 0.0434 µM; in assay [5] it was 0.154 µM; in assay [6] it was 1.08 µM; in assay [7], 0.888 µM. Besides, the GI50 in assay [8] is 0.794 µM. For the same compound, the total growth inhibition concentration (TGI) in assay [1] is 0.318 µM; in assay [3], 1.81 µM; in [4], 0.285 µM; in [5] it was 0.529 µM; in [6], 2.36 µM; in assay [7] it was 2.28 µM. In addition, the TGI in [8] was determined as 2.08 µM.

Regarding `CCCC1N2CCCCC2[C@@H]2c3[nH]c4ccccc4c3CCN12` (stereo partly specified), the concentration for total growth inhibition (TGI) in [1], in [3], in assay [4], in [5], in assay [6] and in assay [8] was above 100 µM throughout.

As to `CCCn1c(=S)sc2c1nc(C)n1c(Nc3ccccc3)nnc21`, the GI50 in assay [1] was 15.1 µM; in assay [2] it was 1.83 µM; in [3], 4.3 µM; in assay [4] it was 3.36 µM; in assay [5] it was 4.22 µM; in assay [6], 13.1 µM. The GI50 in [8] is 2.59 µM. The total growth inhibition concentration (TGI) was above 100 µM in [1]; 16 µM in assay [2]; 49.2 µM in assay [3]; 36.1 µM in assay [4]; 39.3 µM in assay [5]; 38.3 µM in [6]. In assay [8], this compound gave a total growth inhibition concentration (TGI) of 19.8 µM.

As for `C/C(CC(=O)Nc1cc(C)ccc1C)=N\NC(=O)c1ccncc1`, the total growth inhibition concentration (TGI) in [1], in [3], in [4], in assay [5], in [6] and in [7] was above 100 µM each time. This compound also registered a TGI in [8] above 100 µM.

As for `COc1ccc(NC(=O)CC(=O)N/N=C/c2ccc(N(CCC#N)S(C)(=O)=O)cc2)cc1`, the TGI in assay [1], in [2], in assay [3], in assay [5], in [6] and in assay [7] was above 100 µM in each case. This compound gave a TGI in [8] above 100 µM.

`NC1=NC(c2ccccc2)CC(c2cc(Cl)ccc2O)=N1` (stereo unspecified): the TGI in [1] amounted to 32.9 µM; in [2], 36.6 µM; in [3], 32.5 µM; in [4], 35.7 µM; in [5], 41 µM; in assay [6], 32.1 µM. For the same compound, the values for the total growth inhibition concentration (TGI) in assay [7] and in assay [8] were 26.9 µM and 31 µM, respectively.

For the compound `COc1cc(Nc2nc3ccccc3nc2-c2cccs2)cc(OC)c1OC`, the TGI in assay [1], in [2], in assay [3], in assay [4], in assay [5] and in [6] was above 100 µM in each case. Besides, in assay [8], the TGI was above 100 µM.
